Laboratory results reported in patent US20030054411A1, “GPR motifs and uses thereof” (priority 2001, published 2003).

B1: AGS3: Activator of G-protein Signalling 3; bioactive 74 amino acid fragment isolated in yeast screen, tested as GST fusion (protein)
chain: MLIKYQSSRIDDQRCPPPDVLPRGPTMPDEDFFSLIQRVQAKRMDEQRVDLAGSPDQEASGLPDPRQQCPPGAS
modifications: left off: a dimerising Fc or GST

Columns and labels:
brain Gβγ = assay: GST fusion protein interaction with purified brain Gβγ; format: binding, bovine; settings: GST fusion protein ~300 nM, Gβγ 40 nM
Description: (A) Bioactivity of cDNA #37 and 53 in yeast strains expressing different Gα subunits. The Gpa1, Giα2Gpa1(1-41), Giα3Gpa1(1-41) and Gα16Gpa1(1-41) yeast strains expressed similar amounts of G-protein as determined by immunoblotting with Gpa1-specific antisera. Each series of experiments include data obtained in the absence of Gα to indicate the signal obtained when the action of Gβγ is not limited by reformation of heterotrimer. Data are presented as the mean±S.E.M of three experiments with duplicate determinations. (B) Interaction of AGS2 and AGS3 with G-proteins. AGS2 and the bioactive AGS3 peptide (74 amino acids) beginning at the first in frame methionine were generated as GST-fusion proteins in bacteria and purified using a glutathione affinity matrix. AGS2 and AGS3 GST fusion proteins were incubated with G-protein subunits (Gα=60-80 nM, Gβγ=40 nM, fusion protein=˜300 nM, total volume=250 ul) for 12 hrs at 4° C. GDP=10 uM. GTPγS=10 uM plus 5 mM MgCl2. […] Giα2 was generated in Sf9 cells as an amino terminal his6-tagged protein and was detected on membrane transfers using anti-Xpress antisera (Invitrogen). Bovine brain Gβγ was detected on membrane transfers with Gβ antisera. […]
Immunoblotting and G-protein interaction assays. […] Bound proteins were detected by immunoblotting membrane transfers with specific antisera. […]

brain G-protein = assay: GTPγS binding assay, brain G-protein; format: biochemical, bovine; settings: AGS proteins
Procedure: A and B, the carboxyl region of AGS3 (Pro^463-Ser^650) containing all four GPR repeats was generated as a His-tagged (A) or GST fusion (B) protein for protein interaction assays as described under Examples. All interactions were done in the presence of 10 μM GDP, and the input lanes represent one-tenth of the G-protein used in each interaction assay. A, Giα1 (75 nM) was incubated with 300 nM His-tagged AGS3-GPR in the absence and presence of increasing amounts of the GPR peptide, after which bound Giα was isolated on a nickel affinity matrix, and samples were processed for immunoblotting with Giα antisera. The blot in the upper panel of A was stripped and reprobed with AGS3 antisera to provide internal controls for protein loading. B, Giα2 (75 nM) was incubated with 300 nM AGS3-GPR or GST in the presence and absence of 100 μM GPR consensus peptide, GPR peptide Q15A, or GPR peptide R23F. […] C and D, GTPγ^35S binding to G-proteins (100 nM) was measured in the absence and presence of peptides as described in the Examples. Data are expressed as the percent of specific binding (˜5 pmol) observed in the absence of peptide and represent the means±S.E. derived from three experiments. […]
GTPγS Binding Assays—GTPγS binding assays were generally conducted as described (39). […] Radioactivity bound to the filters was determined by liquid scintillation counting. […]

Molecule	interaction with brain Gβγ (brain Gβγ)	effect on GTPγ35S binding to heterotrimeric brain G-protein (brain G-protein)
AGS2: Activator of G-protein Signalling 2, protein identical to mouse Tctex1, isolated from NG108-15 cDNA library	directly bound	did not alter
B1	did not interact	did not alter
